According to patent US11400101B2, “Treatment of allergic rhinitis using a combination of mometasone and olopatadine” (GLENMARK SPECIALTY S.A., priority 2013, dated 2022):
Marks after values point to notes of the source that are not given here.

Columns and labels:
sneezing response = assay: Sneezing response in ovalbumin induced rhinitis model (whole body plethysmography); assay type: in vivo, guinea pigs; settings: for Inhibition of sneezing response (in words) / Number of Sneeze (0-50 min): MF 10 μg; for Percent inhibition of sneeze: MF 10 μg per animal, vs ovalbumin control; for Number of Sneeze (0-50 min): intranasal, ovalbumin challenged
Description: Male Dunkin Hartley guinea pigs were actively sensitized with a subcutaneous injection of 1.5 mg of ovalbumin and 20 mg of aluminum hydroxide gel on days 0 and 7. Guinea pigs were sensitized intranasally with 2% ovalbumin from days 14-17. On day 28, the animals were challenged with 6% ovalbumin intranasally. Mometasone furoate 10 μg was given intranasally 24 hours and 1 hour prior to the final ovalbumin challenge. Olopatadine hydrochloride was given intranasally 1 hour before the final ovalbumin challenge. The dosing volume was 40 μl/animal. The saline control group and ovalbumin control group received vehicle (40 μl, 0.1% Tween 80 in distilled water). Sneezing response was determined by using whole body plethysmography (Buxco Research Systems, USA) for 50 minutes after final saline or ovalbumin challenge. The procedure in Example 1 was repeated except 120 μg of olopatadine hydrochloride (based on the equivalent weight of olopatadine free base) was used. The animal groups in Table 3 below were used during this experiment. Compound administration was performed as in Example 1, except the dosing volume was 60 μl/animal. The saline control group and ovalbumin control group received vehicle (60 μl, 0.1% Tween 80 in distilled water). In vivo evaluations were performed as in Example 1.

[1] = Plasma pharmacokinetics of TP-1 in the Phase III study, day 1 and day 8 (steady state); assay type: in vivo, human; settings: patients receiving TP-1 twice daily
Text: This study consisted of four visits to the study site. After the initial screening visit (Visit 1), subjects who met all study selection criteria were required to undergo a single-blind placebo run-in period for 7-10 days. Following the completion of the run-in period, eligible subjects meeting the randomization criteria were enrolled and randomized to one of the four treatment arms. Subjects were dispensed medication as per the randomization list. Randomized subjects were required to undergo a 2 week (14 days) treatment period as per the protocol to assess the efficacy and safety of the assigned treatment. Subjects were instructed to record the symptom scores in a symptom assessment diary. They were also scheduled to have at least two blood samples for PK assessment during the treatment period.
• Change from baseline in average AM and PM subject-reported 12-hour rTNSS (reflective TNSS) over the 14-day treatment period. Secondary Endpoints • Change from baseline in average AM and PM subject-reported 12-hour iTNSS (instantaneous TNSS) over the 14 day treatment period. • Change from baseline in average AM and PM subject-reported 12-hour rTOSS (reflective TOSS) over the 14-day treatment period. • Onset of action for each treatment are assessed by comparing the change from baseline in post-treatment iTNSS between each active treatment and placebo at defined time points (prior to first dose (pre-dose), 15 min, 30 min, 45 min, 60 min, 90 min, 120 min, 150 min, 180 min, 210 min, and 240 min) after the first study treatment for 4 hours. • Change from baseline in the overall Rhinoconjunctivitis Quality of Life questionnaire (RQLQ)—Standardized Activities (RQLQ(S)) score on Day 15 (Visit 4) for the Full Analysis Set (FAS). Pharmacokinetic Endpoints • Plasma PK: Maximum plasma concentration (Cmax), time to attain Cmax (Tmax), and area under the plasma concentration-time curve over the dosing interval (AUCtau) will be estimated for mometasone furoate and olopatadine on Day 1 and Day 8 based on the pharmacokinetic analysis set (PKAS). Tertiary Efficacy Endpoints Nasal Symptoms: • Change from baseline in AM subject-reported rTNSS over the 14-day treatment period. • Change from baseline in AM subject-reported iTNSS over the 14-day treatment period. • Change from baseline in PM subject-reported rTNSS over the 14-day treatment period. • Change from baseline in PM subject-reported iTNSS over the 14-day treatment period. • Change from baseline in subject-reported reflective individual nasal symptoms over the 14-day treatment period (AM, PM and average of AM and PM). • Change from baseline in subject-reported instantaneous individual nasal symptoms over the 14-day treatment period (AM, PM and average of AM and PM). • Change from baseline in average AM and PM subject-reported rTNSS and iTNSS for each day. • Change from baseline in AM subject-reported rTNSS and iTNSS for each day. • Change from baseline in PM subject-reported rTNSS and iTNSS for each day. […]

[2] = Pharmacokinetics of mometasone furoate, single-dose three-period cross-over study, Example 13; assay type: in vivo, human; settings: single dose nasal spray
Description: The pharmacokinetics of mometasone furoate in a fixed dose combination of mometasone furoate and olopatadine hydrochloride nasal spray was evaluated in a clinical trial. The clinical trial was a randomized, single-center, single-dose, open-label, three-period, six-sequence, cross-over study to evaluate three treatments administered by nasal spray. The three treatments included a combination of mometasone furoate and olopatadine hydrochloride nasal spray, mometasone furoate nasal spray and Nasonex® nasal spray. […] The study consisted of a screening visit, 3 single-dose treatment periods with washout periods of 7 to 14 days between dosing in each treatment period, an early withdrawal visit if applicable, and a follow-up telephone call (or visit) 1 to 7 days after completing the third treatment period. A total of 30 subjects were randomized to 1 of 6 treatment sequences and received at least 1 dose of study drug. All 30 subjects were included in the safety analysis set and the pharmacokinetic subset. All but 2 subjects completed the study per protocol.

[3] = system: total cells and eosinophils in nasal lavage; assay: Nasal lavage total cell count and eosinophils in ovalbumin induced rhinitis model; assay type: in vivo, guinea pigs; settings: for Inhibition of total cell and eosinophils in nasal lavage (in words): MF 10 μg; for % inhibition of eosinophils / Percent inhibition of total cell count / Eosinophils × 10^5/ml nasal lavage / Total cell count × 10^5/ml nasal lavage: MF 10 μg per animal
Description: Male Dunkin Hartley guinea pigs were actively sensitized with a subcutaneous injection of 1.5 mg of ovalbumin and 20 mg of aluminum hydroxide gel on days 0 and 7. Guinea pigs were sensitized intranasally with 2% ovalbumin from days 14-17. On day 28, the animals were challenged with 6% ovalbumin intranasally. Mometasone furoate 10 μg was given intranasally 24 hours and 1 hour prior to the final ovalbumin challenge. Olopatadine hydrochloride was given intranasally 1 hour before the final ovalbumin challenge. The dosing volume was 40 μl/animal. The saline control group and ovalbumin control group received vehicle (40 μl, 0.1% Tween 80 in distilled water). Nasal lavage was performed at 4 hours after challenge of animals with saline or ovalbumin on day 28. Animals were anesthetized with an overdose of urethane, the trachea was exposed and nasal lavage was performed using 2 mL pre-warmed normal saline. The collected nasal lavage was taken for total cell count using a hemocytometer. The nasal lavage was centrifuged, and the cell pellet resuspended in 15 μL guinea pig serum and used for preparation of smears. Slides were stained with Leishman's stain and a differential cell count of 100 cells based on standard morphology was performed manually. The total number of eosinophils in each nasal lavage sample was calculated using the formula: [formula] Percent inhibition of eosinophils was calculated using the following formula: The procedure in Example 1 was repeated except 120 μg of olopatadine hydrochloride (based on the equivalent weight of olopatadine free base) was used. The animal groups in Table 3 below were used during this experiment. Compound administration was performed as in Example 1, except the dosing volume was 60 μl/animal. The saline control group and ovalbumin control group received vehicle (60 μl, 0.1% Tween 80 in distilled water). In vivo evaluations were performed as in Example 1.

[4] = Example 1, OH 50 μg, 4 hours after challenge

SMILES: C[C@@H]1C[C@H]2[C@@H]3CCC4=CC(=O)C=C[C@]4(C)[C@@]3(Cl)[C@@H](O)C[C@]2(C)[C@@]1(OC(=O)c1ccco1)C(=O)CCl [Mometasone Furoate, Mometasone furoate]
- Inhibition of sneezing response (in words) (sneezing response; Example 1, OH 50 μg): not effective
- Percent inhibition of sneeze (sneezing response; Example 1, OH 50 μg): 15%
- Number of Sneeze (0-50 min) (sneezing response; Example 1, per animal: OH 50 μg, combination 50 (OH) & 10 (MF)): 18.83
- Inhibition of sneezing response (in words) (sneezing response; Example 2, OH 120 μg): not effective
- Percent inhibition of sneeze (sneezing response; Example 2, OH 120 μg): −5%
- Number of Sneeze (0-50 min) (sneezing response; Example 2, per animal: OH 120 μg, combination 120 (OH) & 10 (MF)): 37.33
- Mometasone furoate AUCtau, Geo Mean ([1]; Day 1): 0.02616 ng·h/mL
- Mometasone furoate AUCtau, Mean ([1]; Day 1): 0.02856 ng·h/mL
- Mometasone furoate AUCtau, Min-Max ([1]; Day 1): 0.01211 to 0.07254 ng·h/mL
- Mometasone furoate Cmax, Geo Mean ([1]; Day 1): 6.27 pg/mL
- Mometasone furoate Cmax, Mean ([1]; Day 1): 6.78 pg/mL
- Mometasone furoate Cmax, Min-Max ([1]; Day 1): 2.67 to 12.80 pg/mL
- Mometasone furoate Tmax, Median ([1]; Day 1): 1.00 h
- Mometasone furoate AUCtau, Geo Mean ([1]; Day 8): 0.05267 ng·h/mL
- Mometasone furoate AUCtau, Mean ([1]; Day 8): 0.0584 ng·h/mL
- Mometasone furoate AUCtau, Min-Max ([1]; Day 8): 0.02568 to 0.12405 ng·h/mL
- Mometasone furoate Cmax, Geo Mean ([1]; Day 8): 9.17 pg/mL
- Mometasone furoate Cmax, Mean ([1]; Day 8): 9.92 pg/mL
- Mometasone furoate Cmax, Min-Max ([1]; Day 8): 3.58 to 16.10 pg/mL
- Mometasone furoate Tmax, Median ([1]; Day 8): 1.00 h
- Last time point until which quantifiable concentrations were observed [2]: 72 h
- Inhibition of total cell and eosinophils in nasal lavage (in words) ([3]; Example 1, OH 50 μg): significant inhibition
- % inhibition of eosinophils ([3]; Example 1, OH 50 μg): 46%
- Percent inhibition of total cell count ([3]; Example 1, OH 50 μg): 46%
- Eosinophils × 10^5/ml nasal lavage [3, 4]: 2.00* × 10^5/ml
- Total cell count × 10^5/ml nasal lavage [3, 4]: 3.90* × 10^5/ml
- Inhibition of total cell and eosinophils in nasal lavage (in words) ([3]; Example 2, OH 120 μg): significant inhibition
- % inhibition of eosinophils ([3]; Example 2, OH 120 μg): 20%
- Eosinophils × 10^5/ml nasal lavage ([3]; Example 2, OH 120 μg): 2.69 × 10^5/ml
- Percent inhibition of total cell count ([3]; Example 2, OH 120 μg): 30%
- Total cell count × 10^5/ml nasal lavage ([3]; Example 2, OH 120 μg): 4.96 × 10^5/ml
